Results published in EPA's ToxValDB 9.5.
In brackets after ≈: the same amount, converted by molar mass. Several values for one entry are separate records, joined by “and”; a condition that tells them apart may be missing. Equal values may be shown once.

Experiments:
[1] = tested on: Rattus norvegicus; details: oral, gavage
[2] = tested on: Sus scrofa; details: repeat dose other; oral; diet; M/F; Not specified; Renal proximal tubule degeneration & interstitial nephropathy
[3] = tested on: Oryctolagus sp.; details: acute
[4] = tested on: Rattus norvegicus; details: for LC50 / LD50: acute
[5] = tested on: Canidae; details: subchronic; duration: 3 months; oral; diet; Beagle
[6] = tested on: Mus musculus; details: oral, gavage
[7] = tested on: Cricetulus sp.; details: acute; oral; Chinese
[8] = tested on: Rattus norvegicus; details: dietary / carcinogenicity; duration: 2 years; oral; feed; M/F; Hepatocellular lipid vacuolation
[9] = tested on: Rattus norvegicus; test: LC100; higher = less toxic; details: acute; inhalation; Sprague-Dawley
[10] = tested on: Megascops sp.; details: oral
[11] = tested on: Nycticorax nycticorax; details: oral
[12] = tested on: Anas platyrhynchos; details: oral
[13] = tested on: Cavia porcellus; details: uterotrophic; duration: 12 days; injection; subcutaneous; Guinea Pig; Active
[14] = tested on: Monkey; details: subchronic; duration: 3 months; inhalation
[15] = tested on: Cavia porcellus; details: subchronic; duration: 3 months; inhalation; Guinea Pig
[16] = tested on: Homo sapiens; details: clinical, duration: 10 weeks, oral, F, hematological
[17] = tested on: Homo sapiens; details: clinical; oral; M/F; decreased erythrocyte cu, zn-superoxide dismutase (esod) activity in healthy adult male and female volunteers
[18] = tested on: Homo sapiens; details: clinical; oral; M/F; No significant adverse effects
[19] = tested on: Homo sapiens; details: clinical; duration: 10 weeks; oral; diet; Blood: Decreased blood enzyme
[20] = short-term, duration: 28 days, M, Sprague-Dawley, Clinical Observation: Salivation increase + Blood Chemistry: AST increase, T-Cho decrease, CRE increase, TP increase, ALB increase, GLUC …
[21] = short-term, duration: 18 days, inhalation, Sprague-Dawley
[22] = subchronic, duration: 13 weeks, oral, gavage, F33/N
[23] = subchronic, duration: 13 weeks, B6C3F1

In the case of `C[C@@H]1Cc2c(Cl)cc(C(=O)N[C@@H](Cc3ccccc3)C(=O)O)c(O)c2C(=O)O1` [Ochratoxin A], the NOAEL [1, 20] is reported as under 0.2 mg/kg-day, the NOEL [1, 20] is reported as under 0.2 mg/kg-day and the NOEL ([1]; subchronic, duration: 13 weeks, M/F, Fischer 344, Body Weight Changes: decrease + Relative Organ Weight: Right kidney decrease + Histopathology: Kidney-Karyomegaly Kidney-Atrophy Kidney/…) is reported as under 0.0625 mg/kg-day. It also gave an LOEL [2] of 0.008 mg/kg-day.

Work on `CCCCCCCCCCCCCCCCCCOC(=O)CCc1cc(C(C)(C)C)c(O)c(C(C)(C)C)c1` [Octadecyl 3-(3,5-di-tert-butyl-4-hydroxyphenyl)propionate] yielded an NOAEL ([1]; short-term, duration: 28 days, M/F, Sprague-Dawley, Urinalysis: N/A(measured only 16h volume) + Absolute Organ Weight: Liver increase + Relative Organ Weight: Liver increase + Necropsy: Kidney…) of 30 mg/kg-day, an LD50 ([3]; dermal) of over 2000 mg/kg and an LC50 ([4]; inhalation) of over 1.8 µg/mL. It also gave an LC50 ([4]; inhalation, particle) of over 1.8 µg/mL, an LD50 ([4]; injection, Intraperitoneal) of over 1000 mg/kg and an LD50 ([4]; injection, intraperitoneal) of over 1000 mg/kg. The LD50 ([4]; oral) was over 5000 mg/kg, the NOAEL ([4]; chronic, duration: 104 weeks, oral, diet, Cfy) was 39 mg/kg-day and the NOAEL ([4]; developmental, duration: 10 days, oral, gavage, Sprague-Dawley) was over 1000 mg/kg-day. It also gave an LOAEL ([4]; developmental, oral, diet) of 500 ppm, an NOAEL ([4]; reproduction developmental, duration: 10 months, oral, diet, COBS(R)CD(R), generation: F0) of 1500 ppm and an NOAEL ([4]; reproduction developmental, duration: 10 months, oral, diet, COBS(R)CD(R), generation: F1) of under 500 ppm. For the same compound, the NOAEL ([4]; reproduction developmental, duration: 10 months, oral, diet, COBS(R)CD(R), generation: F2) was under 500 ppm, the NOAEL ([4]; reproduction developmental, duration: 10 days, oral, gavage, F, Sprague-Dawley) was 150 mg/kg-day and the NOAEL ([4]; reproduction developmental, duration: 10 days, oral, gavage, generation: F0) was 150 mg/kg-day. It also gave an NOAEL ([4]; reproduction developmental, oral, diet, F) of 1500 ppm, an NOAEL ([4]; reproduction developmental, oral, diet, generation: F0) of 1500 ppm and an NOAEL ([4]; short-term, duration: 21 days, inhalation, RAI f (SPF)) of over 0.543 mg/L. For the same compound, the NOAEL ([4]; short-term, duration: 28 days, oral, diet, F) was 1000 mg/kg-day, the NOAEL ([4]; short-term, duration: 28 days, oral, diet, M) was 100 mg/kg-day and the NOAEL ([4]; short-term, duration: 28 days, oral, gavage, Sprague-Dawley) was 30 mg/kg-day. For the same compound, the NOAEL [5] was ≥ 31.5 mg/kg-day and ≤ 34.5 mg/kg-day, the NOAEL ([6]; developmental, duration: 10 days, NMRI) was over 1000 mg/kg-day and the NOAEL ([6]; reproduction developmental, duration: 10 days, F, NMRI) was 500 mg/kg-day. For the same compound, the LD50 [7] was over 6000 mg/kg.

`COC(=O)Nc1nc2ccc(S(=O)c3ccccc3)cc2[nH]1` (configuration not stated) [Oxfendazole] gave an NOEL [8] of 0.7 mg/kg-day.

In the case of `CCC#N` [Propionitrile], the LC100 [9] is reported as 90.3 mg/L, the LD50 ([3]; dermal, occlusive, New Zealand) is reported as 90 mg/kg and 40 mg/kg and 56 mg/kg and the LC50 ([4]; inhalation, Sprague-Dawley) is reported as 3.3 µg/mL (≈ 59.9 µM). For the same compound, the NOAEL ([4]; developmental, duration: 6 days, oral, gavage, Sprague-Dawley) was 40 mg/kg-day, the NOAEL ([4]; reproduction developmental, duration: 14 weeks, inhalation, Sprague-Dawley) was over 471 mg/m3 and the NOAEL ([4]; reproduction developmental, duration: 46 days, inhalation, Sprague-Dawley, generation: F0) was 135 mg/m3. For the same compound, the NOAEL ([4]; reproduction developmental, duration: 46 days, inhalation, Sprague-Dawley, generation: F1) was 473 mg/m3, the LOAEL [4, 21] was 741 mg/m3 and the NOAEL [4, 21] was 259 mg/m3.

With `C[Se]CCC(N)C(=O)O` (configuration not stated) [Selenomethionine] the LOAEL [10] was 1.5 mg/kg-day, the NOAEL [10] was 0.44 mg/kg-day and the NOAEL [11] was 1.8 mg/kg-day. For the same compound, the LOAEL [12] was 0.8 mg/kg-day and the NOAEL [12] was 0.4 mg/kg-day.

Compound `CC/C(=C(\c1ccccc1)c1ccc(OCCN(C)C)cc1)c1ccccc1` [Tamoxifen] has an LEL [13] of 0.1 mg/day.

`CCCCC(CC)COP(=O)(OCC(CC)CCCC)OCC(CC)CCCC` (configuration not stated) [Tris(2-ethylhexyl) phosphate] gave an LD50 ([3]; dermal) of 20000 mg/kg, an LD50 ([3]; injection, intravenous) of over 358 mg/kg and an LD50 ([3]; intertracheal) of over 1810 mg/kg. It also gave an LD50 ([4]; inhalation) of over 0.45 mg/L, an LOAEL [4, 22] of 2000 mg/kg-day and an NOAEL [4, 22] of 1000 mg/kg-day. The NOAEL ([4]; subchronic, duration: 30 days, oral, diet) was 430 mg/kg-day, the NOAEL [14] was 85 mg/m3 and the LOAEL [6, 23] was 4000 mg/kg-day. It also gave an NOAEL [6, 23] of 2000 mg/kg-day, an LOAEL [15] of 9.6 mg/m3 and an NOAEL [15] of 1.6 mg/m3.

`[Zn]` [Zinc] was tested, and the NOAEL [16] was 0.83 mg/kg-day, the NOAEL ([16]; capsule) was 0.83 mg/kg-day and the LOAEL [17] was 0.91 mg/kg-day. The NOAEL [18] was 220 mg/day and 600 mg/day and the LOAEL [19] was 1 mg/kg-day.
